From patent US10851072B2 (THE REGENTS OF THE UNIVERSITY OF MICHIGAN, priority 2018, dated 2020)

Columns and labels:
[1] = system: serum response element (SRE); experiment: SRE.L-Luciferase Reporter Assay; type: cell-based; conditions: Homo sapiens, HEK-293T cells co-transfected with Gα12Q231L, SRE.L and pRL-TK plasmids, 19 hrs treatment
Procedure: Biological activity of the compounds disclosed herein were assessed in the SRE.L luciferase reporter assay. HEK-293T cells were co-transfected with 2 ng of the Gα12Q231L expression plasmid along with 50 ng of the SRE.L and 7 ng of the pRL-TK luciferase reporter plasmids, as described in the Materials and Methods section. Cells were treated with 0 (vehicle, DMSO alone), 1, 3, 10, 30, and 100 μM of a compound disclosed herein for 19 hrs after transfection before lysis. Luminescence was determined as described in the Materials and Methods section. Just before cell lysis, the viability of the cells was measured using the WST-1 cell proliferation reagent as described in the Materials and Methods section. Data are expressed as percentage of inhibition (DMSO alone=0%). The experiments were performed three separate times to achieve n=3 in triplicate.

[2] = MLM metabolic stability (half-life); type: in vitro ADME, mice; conditions: mouse, mouse liver microsomes (MLM), 1 μM compound, beta-NADPH 1 mM, 60 min, LC-MS, read-out: MLM T1/2
Procedure: Compounds (1 μM) were incubated with MLM in the presence of beta-NADPH (1 mM) for 60 min. The remaining drug concentration was measured using LC-MS using multiple reaction monitoring (MRM) mode. Both initial and overall disappearance rate and half-lives were calculated. […] Verapamil was run as a positive control in every assay; its half-life could not exceed 4 min or the assay was considered invalid.

[3] = system: C57BL/6J mice; experiment: In vivo testing for antifibrotic effects (bleomycin skin injections); conditions: skin of bleomycin-injected mice, A1 3 or 10 mg/kg PO daily, fourteen days
Procedure: C57BL/6J mice were ordered from Jackson labs for delivery at 15-16 weeks of age. Mice were preconditioned with supplemental chow for two weeks prior to start of experiment. Mice were randomized by weight into four groups (vehicle, A1 (3 mg/kg), A1 (10 mg/kg), PBS). Each group consisted of two cages with four mice per cage. Drug stock solutions were aliquoted and stored at 4° C. for the duration of the study. Aliquots were warmed to 37° C. and briefly vortexed prior to filling the gavage syringes. Vehicle and A1 groups received daily bleomycin injections (0.1 mL, ID) each afternoon in a defined area of shaved dorsal skin. PBS control group received daily injections (0.1 mL, ID) of PBS in the afternoon. Mice were anesthetized with ketamine/xylazine for ID injections. […]
Fixed skin was paraffin embedded and sectioned at the University of Michigan Comprehensive Cancer Center Histology Core. […] Stained sections were analyzed with an Olympus BX51\DP72 microscope. Dermal thickness was determined by measuring the maximal distance between the epidermal-dermal junction and the dermal-subcutaneous fat junction. […]
Skin sections were weighed and hydrolyzed in 6M HCl at 120° C. for three hours. […] Absorbance was measured at 560 nm using a Synergy HT microplate reader (BioTek Instruments). […]

Row | SMILES | IC50 ([1]; Table E) [nM] | IC50 ([1]; Table C) [nM] | other results
1 | O=C(O)CCCSc1nnc(-c2ccc(C(F)(F)F)cc2Cl)o1 [Compound A2] |  |  | half-life at 1 μM [2]: > 1 h
2 | O=C(O)CCCSc1nnc(-c2ccccc2F)o1 [Compound A6, 4-((5-(2-fluorophenyl)-1,3,4-oxadiazol-2-yl)thio)butanoic acid] |  | 211 | 
3 | O=C(O)CCCSc1nnc(-c2ccc(OCC(F)(F)F)cc2Cl)o1 [Compound A12, 4-((5-(2-chloro-4-(2,2,2-trifluoroethoxy)phenyl)-1,3,4-oxadiazol-2-yl)thio)butanoic acid] |  | 0.8 | half-life at 1 μM [2]: > 1 h
4 | O=C(O)CCCSc1nnc(-c2ccc(OC(F)F)cc2)o1 [Compound A23, 4-((5-(4-(difluoromethoxy)phenyl)-1,3,4-oxadiazol-2-yl)thio)butanoic acid] |  | 130 | 
5 | O=C(O)CCCSc1nnc(-c2ccc(C(F)F)cc2)o1 [Compound A18, 4-((5-(4-(difluoromethyl)phenyl)-1,3,4-oxadiazol-2-yl)thio)butanoic acid] |  | 160 | 
6 | COC(=O)CCCSc1nnc(-c2ccc(C3CC3)cc2Cl)o1 [Compound A10, Methyl 4-((5-(2-chloro-4-cyclopropylphenyl)-1,3,4-oxadiazol-2-yl)thio)butanoate] |  |  | IC50 ([1]; Table D): 3 nM
7 | O=C(O)CCCSc1nnc(-c2ccc(OC3CC3)cc2Cl)o1 [Compound A8, 4-((5-(2-chloro-4-cyclopropoxyphenyl)-1,3,4-oxadiazol-2-yl)thio)butanoic acid] |  |  | half-life at 1 μM [2]: > 1 h
8 | CC1(COc2ccc(-c3nnc(SCCCC(=O)O)o3)c(Cl)c2)COC1 [Compound A16, 4-((5-(2-chloro-4-((3-methyloxetan-3-yl)methoxy)phenyl)-1,3,4-oxadiazol-2-yl)thio)butanoic acid] |  |  | IC50 ([1]; Table D): 42 nM
9 | CC(C)(F)c1ccc(-c2nnc(SCCCC(=O)O)o2)cc1 [Compound A22] |  | 9.5 | 
10 | O=C(O)CCCSc1nnc(-c2ccccc2C(F)(F)F)o1 [Compound A5, 4-((5-(2-(trifluoromethyl)phenyl)-1,3,4-oxadiazol-2-yl)thio)butanoic acid] |  | 6200 | 
11 | O=C(O)CCCSc1nnc(-c2ccc(OC(F)(F)F)cc2Cl)o1 [Compound A14, 4-((5-(2-chloro-4-(trifluoromethoxy)phenyl)-1,3,4-oxadiazol-2-yl)thio)butanoic acid] |  | 3.6 | 
12 | O=C(O)CCCSc1nnc(-c2ccc(OCC3COC3)cc2Cl)o1 [Compound A15, 4-((5-(2-chloro-4-(oxetan-3-ylmethoxy)phenyl)-1,3,4-oxadiazol-2-yl)thio)butanoic acid] |  |  | IC50 ([1]; Table D): 35 nM
13 | O=C(O)CCCSc1nnc(-c2ccc(C3CC3)cc2Cl)o1 [Compound A1, 4-((5-(2-chloro-4-cyclopropylphenyl)-1,3,4-oxadiazol-2-yl)thio)butanoic acid] |  |  | IC50 ([1]; Table D): 0.0012 nM; half-life at 1 μM [2]: 0.783 h; collagen thickness ([3]; Masson's trichrome, dermal thickness, FIG. 2): reduction; hydroxyproline content ([3]; FIG. 1): reduction
14 | O=C(O)CCCSc1nnc(-c2ccc(OC(F)(F)F)cc2)o1 [Compound A19, 4-((5-(4-(trifluoromethoxy)phenyl)-1,3,4-oxadiazol-2-yl)thio)butanoic acid] |  | 78 | 
15 | O=C(O)CCCSc1nnc(-c2ccc(OCC3CC3)cc2Cl)o1 [Compound A7, 4-((5-(2-chloro-4-(cyclopropylmethoxy)phenyl)-1,3,4-oxadiazol-2-yl)thio)butanoic acid] |  |  | IC50 ([1]; Table D): 0.02 nM
16 | O=C(O)CCCSc1nnc(-c2ccc(Cl)cc2O)o1 [Compound C, 4-((5-(4-chloro-2-hydroxyphenyl)-1,3,4-oxadiazol-2-yl)thio)butanoic acid] |  | 0.02 | 
17 | O=C(O)CCCSc1nnc(-c2ccc(OCC(F)(F)F)cc2)o1 [Compound A17, 4-((5-(4-(2,2,2-trifluoroethoxy)phenyl)-1,3,4-oxadiazol-2-yl)thio)butanoic acid] |  | 240 | 
18 | O=C(O)CCCSc1nnc(-c2cccc(C(F)(F)F)c2Cl)o1 [Compound A20, 4-((5-(2-chloro-3-(trifluoromethyl)phenyl)-1,3,4-oxadiazol-2-yl)thio)butanoic acid] |  | 330 | 
19 | O=C(O)CCCSc1nnc(-c2cc(C3CC3)ccc2Cl)o1 [Compound A4, 4-((5-(2-chloro-5-cyclopropylphenyl)-1,3,4-oxadiazol-2-yl)thio)butanoic acid] |  |  | IC50 ([1]; Table D): 11 nM

Continued, in another order:

Row | IC50 ([1]; Table E) [nM] | IC50 ([1]; Table C) [nM] | SMILES | other results
20 | > 100000 |  | O=C(O)[C@H]1CC[C@@H](Sc2nnc(-c3ccc(Cl)cc3Cl)o2)CC1 [Compound B9, cis-4-((5-(2,4-dichlorophenyl)-1,3,4-oxadiazol-2-yl)thio)cyclohexanecarboxylic acid] | 
21 | 140 |  | O=C(O)[C@H]1C[C@H](Sc2nnc(-c3ccc(Cl)cc3Cl)o2)C1 [Compound B1, trans-3-((5-(2,4-dichlorophenyl)-1,3,4-oxadiazol-2-yl)thio)cyclobutanecarboxylic acid] | 
22 | > 100000 |  | O=C(O)[C@H]1CC[C@H](Sc2nnc(-c3ccc(Cl)cc3Cl)o2)CC1 [Compound B10, trans-4-((5-(2,4-dichlorophenyl)-1,3,4-oxadiazol-2-yl)thio)cyclohexanecarboxylic acid] | 
23 | 1000 |  | O=C(O)[C@H]1C[C@H](Sc2nnc(-c3ccc(C(F)(F)F)cc3Cl)o2)C1 [Compound B6, trans-3-((5-(2-chloro-4-(trifluoromethyl)phenyl)-1,3,4-oxadiazol-2-yl)thio)cyclobutanecarboxylic acid] | 
24 | 42 |  | O=C(O)[C@H]1C[C@@H](Sc2nnc(-c3ccc(C(F)(F)F)cc3Cl)o2)C1 [Compound B5, cis-3-((5-(2-chloro-4-(trifluoromethyl)phenyl)-1,3,4-oxadiazol-2-yl)thio)cyclobutanecarboxylic acid] | 
25 | 0.46 |  | O=C(O)[C@H]1C[C@@H](Sc2nnc(-c3ccc(C4CC4)cc3Cl)o2)C1 [Compound B3, cis-3-((5-(2-chloro-4-cyclopropylphenyl)-1,3,4-oxadiazol-2-yl)thio)cyclobutanecarboxylic acid] | 
26 | 15 |  | O=C(O)[C@@H]1CC[C@H](Sc2nnc(-c3ccc(Cl)cc3Cl)o2)C1 (relative stereo) [Compound B7, cis-3-((5-(2,4-dichlorophenyl)-1,3,4-oxadiazol-2-yl)thio)cyclopentanecarboxylic acid] | 
27 | 4.9 |  | O=C(O)[C@H]1C[C@@H](Sc2nnc(-c3ccc(Cl)cc3Cl)o2)C1 [Compound B2, cis-3-((5-(2,4-Dichlorophenyl)-1,3,4-oxadiazol-2-yl)thio)cyclobutanecarboxylic acid] | half-life at 1 μM [2]: > 1 h
28 |  | 1.8 | O=C(O)CCCSc1nnc(-c2ccc(Cl)cc2Cl)o1 [CCG-232120, reference compound] | 
29 | 2.6 |  | O=C(O)[C@H]1C[C@H](Sc2nnc(-c3ccc(C4CC4)cc3Cl)o2)C1 [Compound B4, trans-3-((5-(2-chloro-4-cyclopropylphenyl)-1,3,4-oxadiazol-2-yl)thio)cyclobutanecarboxylic acid] | 
30 | > 100000 |  | O=C(O)[C@H]1CC[C@H](Sc2nnc(-c3ccc(Cl)cc3Cl)o2)C1 (relative stereo) [Compound B8, trans-3-((5-(2,4-dichlorophenyl)-1,3,4-oxadiazol-2-yl)thio)cyclopentanecarboxylic acid] | 
